In PMC7112222, “Investigation of pyrimidine nucleoside analogues as chemical probes to assess compound effects on the proliferation of Trypanosoma cruzi intracellular parasites” (PLoS Neglected Tropical Diseases, 2020):
Read-outs that look alike come from different tables or passages of the source.

What was measured:
[1] = test system: T. cruzi intracellular amastigotes; test: Image-based assay of the number of T. cruzi infected cells (intracellular amastigotes in 3T3 host cells); format: cell-based, Trypanosoma cruzi; settings: for IC50: highest test concentration 183 μM
Experimental: Parasites and host cells were maintained as outlined previously. Briefly, host 3T3 fibroblasts (ATCC, CCL-92) were grown in RPMI medium (Thermo Fisher Scientific, USA) with no phenol red, supplemented with 10% FBS (Thermo Fisher Scientific, USA) and incubated at 37°C in 5% CO2. Host cells were harvested at 70% confluency and were split every 2–3 days in 175 cm^2 flasks. 3T3 cells were cultured up to passage 7 as contact inhibition was reduced or lost at higher passages. Prior to infection with T. cruzi trypomastigotes, host cells were seeded at 1.2 x 10^6 cells in 75 cm^2 or 4 x 10^5 cells in 25 cm^2 flasks and grown for 24 hours before parasite addition. Parasites were added at a multiplicity of infection (MOI) of 10:1 and incubated for 24 hours before non-infected trypomastigotes were washed off the host cell bed with PBS supplemented with Ca^2+ and Mg^2+ (Thermo Fisher Scientific, USA). Incubation was continued for a further 3 days, until tissue culture trypomastigotes began to egress from host cells. Egressed parasites were used for assays or to continue the infective life cycle in vitro.
The activity of the nucleoside analogues against T. cruzi intracellular amastigotes following 24, 48 hours exposure and compound wash off, was determined using image-based techniques as previously described. Briefly, 14-point serial dilutions of the compounds in 100% DMSO were prepared and then further diluted in sterile water at a ratio of 1:21 compound: water. Five microliters of the diluted compounds were added to wells of T. cruzi infected host cells, using a MiniTrak compound handling device (Perkin Elmer, USA) with final concentrations in the plate ranging from 183 μM to 4.6 x 10^−4 μM. All experiments were performed with two separate biological replicates.
IC50 values for inhibitory activity of both the nucleoside analogues tested as DNA probes and known inhibitors tested to determine their effect on replication of T. cruzi were calculated in GraphPad Prism 5, using sigmoidal dose response with variable slope. […] The p-value for difference in the % activity at Emax concentrations for compounds with known activity (EdU identified parasites, compared to Hoechst identified parasites) against T. cruzi was determined using GraphPad Prism 5, using an unpaired student’s t-test. […] The Emax for each compound was at least two data points in from the beginning of the plateau of activity in the IC50 curve, as previously described.

[2] = test system: L. donovani; parameters: method as in PMID 27021313; settings: 72 hours incubation; cited from earlier work

## C#Cc1cn([C@H]2C[C@H](O)[C@@H](CO)O2)c(=O)[nH]c1=O [EdU, 5-ethynyl-2′-deoxy-uridine]
[1]; 48 hours exposure
  SI (selectivity index to T. cruzi intracellular amastigotes in relation to HEK293 cells): 17
[1]; Trypanosoma cruzi, 48 h, 0.018 μM, 48 hours, read-out: inhibition of T. cruzi growth
  inhibition at 0.018 µM: 63 ± 19%
[1]; Trypanosoma cruzi, 48 h, 0.037 μM, 48 hours, read-out: inhibition of T. cruzi growth
  inhibition at 0.037 µM: 51 ± 13%
[1]; Trypanosoma cruzi, 24 hours exposure, read-out: T. cruzi 24 IC50 value
  IC50: 0.073 ± 0.049 µM
[1]; Trypanosoma cruzi, 24 hours exposure, read-out: T. cruzi 24 relative Emax (in brackets) (converted)
  Emax: 83%
[1]; Trypanosoma cruzi, 48 hours incubation, compound wash off, further 72 hours without compound, read-out: T. cruzi Wash off IC50 value
  IC50: 0.42 ± 0.061 µM
[1]; Trypanosoma cruzi, 48 hours incubation, wash off, further 72 hours without compound, read-out: T. cruzi Wash off relative Emax (in brackets) (converted)
  Emax: 99%
[1]; Trypanosoma cruzi, 48 hours incubation, read-out: T. cruzi 48 IC50 value
  IC50: 0.04 ± 0.025 µM
[1]; Trypanosoma cruzi, 48 hours incubation, read-out: T. cruzi 48 relative Emax (in brackets) (converted)
  Emax: 98%
[2]
  toxicity toward L. donovani: lack of toxicity
